Like-named read-outs stand apart in the source and are kept apart here.
Legend:
recombinant HarmOBP10 [1] = target: T1, recombinant HarmOBP10 (Helicoverpa armigera, UniProt G9I573); experiment: Competitive fluorescence binding assay (displacement of 1-NPN from HarmOBP10); details: for activity at 6 µM / activity at 1.6 µM / activity at 16 µM: read-out: % at max (percent of fluorescence measured at the maximum concentration); for activity at 1.6 µM: max conc 1.6 (titration 0.5–1.6 µM); for quality as ligand of OBP10, in words: authors' comment on Table 1
Procedure: Emission fluorescence spectra were recorded on a Hitachi F-4500 at 25°C in a right angle configuration, with a 1 cm light path quartz cuvette and 5 nm slits for both excitation and emission. The protein was dissolved in 50 mM Tris-HCl buffer, pH 7.4, while ligands were added as 1 mM methanol solutions.
The probe was excited at 337 nm and emission spectra were recorded between 380 and 450 nm. […] Dissociation constant for 1-NPN and the stoichiometry of binding was obtained processing the data with Prism software.

recombinant HarmOBP10 [2] = target: T1, recombinant HarmOBP10; experiment: Fluorescence binding assay of the probe 1-NPN to recombinant HarmOBP10
Procedure: Emission fluorescence spectra were recorded on a Hitachi F-4500 at 25°C in a right angle configuration, with a 1 cm light path quartz cuvette and 5 nm slits for both excitation and emission. […]
The probe was excited at 337 nm and emission spectra were recorded between 380 and 450 nm. […] Dissociation constant for 1-NPN and the stoichiometry of binding was obtained processing the data with Prism software. Dissociation constants of the competitors were calculated from the corresponding IC50 values (concentrations of ligands halving the initial fluorescence value of 1-NPN), using the equation: KD = [IC50]/1+[1-NPN]/K1-NPN, [1-NPN] being the free concentration of 1-NPN and K1-NPN being the dissociation constant of the complex protein/1-NPN.

[3] = max conc 16 (titration 2–16 µM), protein and 1-NPN both 2 µM, percent of fluorescence without competitor
[4] = max conc 6 (titration 0.5–6 µM), protein and 1-NPN both 2 µM, percent of fluorescence without competitor
[5] = protein and 1-NPN both 2 µM, percent of fluorescence without competitor
[6] = calculated from IC50: KD = [IC50]/1+[1-NPN]/K1-NPN, read-out: KD (calculated dissociation constant)
[7] = protein and 1-NPN both 2 µM, Tris pH 7.4, unit from method text, not in table, read-out: IC50 (concentration of ligand halving the initial fluorescence value)

T1 sequence (G9I573 entry or part of it): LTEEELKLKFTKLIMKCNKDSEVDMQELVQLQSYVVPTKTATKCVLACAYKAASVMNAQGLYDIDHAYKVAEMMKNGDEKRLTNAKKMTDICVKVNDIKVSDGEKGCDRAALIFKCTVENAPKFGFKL

CC(C)=CCCC(C)=CC#N [Citralva]
% at max (percent of fluorescence measured at the maximum concentration) (recombinant HarmOBP10 [1]; [3]): 60%

CCCCCCCCCCO [1-Decanol]
activity at 6 µM (recombinant HarmOBP10 [1]; [4]): 63%

CCCC/C=C\CCCCCCCCCCO [(Z)-11-Hexadecen-1-ol]
activity at 1.6 µM (recombinant HarmOBP10 [1]; [5]): 74%

CC(C=O)Cc1ccc(C(C)C)cc1 (stereo not shown) [Cyclamen aldehyde]
% at max (percent of fluorescence measured at the maximum concentration) (recombinant HarmOBP10 [1]; [3]): >100%

C=CCc1ccc(O)c(OC)c1 [Eugenol]
activity at 16 µM (recombinant HarmOBP10 [1]): 80%

CCCCCCCCCCCCCCCC(=O)OCC [Ethyl palmitate]
activity at 6 µM (recombinant HarmOBP10 [1]; [4]): 69%

CCCCCC/C=C\CCCCCCCC=O [(Z)-9-Hexadecenal]
activity at 1.6 µM (recombinant HarmOBP10 [1]; [5]): 73%

CCCCCCCCCCCC=O [Dodecanal]
activity at 6 µM (recombinant HarmOBP10 [1]; [4]): 73%

CCCCC/C(C=O)=C/c1ccccc1 [a-Amylcinnamaldehyde]
quality as ligand of OBP10, in words (recombinant HarmOBP10 [1]): Even better ligands
Kd (recombinant HarmOBP10 [1]; [6]): 2.7 µM
% at max (percent of fluorescence measured at the maximum concentration) (recombinant HarmOBP10 [1]; [3]): 13%
IC50 (recombinant HarmOBP10 [1]; [7]): 3.5 µM

CCCCOC(=O)c1ccc(C(C)(C)C)cc1 [Butyl p-tert-butylbenzoate]
Kd (recombinant HarmOBP10 [1]; [6]): 10.9 µM
% at max (percent of fluorescence measured at the maximum concentration) (recombinant HarmOBP10 [1]; [3]): 48%
IC50 (recombinant HarmOBP10 [1]; [7]): 14 µM

CCCCCCCCC=O [Nonanal]
activity at 16 µM (recombinant HarmOBP10 [1]; [3]): > 100%

CCCCCCCCCC(=O)O [Decanoic acid]
activity at 6 µM (recombinant HarmOBP10 [1]; [4]): 62%

Cc1ccc2ccccc2c1 [2-Methylnaphthalene]
activity at 16 µM (recombinant HarmOBP10 [1]): 75%

COC(=O)C=Cc1ccccc1 [Methyl cinnamate]
activity at 16 µM (recombinant HarmOBP10 [1]; [3]): > 100%

CCCCC/C=C\C/C=C\CCCCCCCC(=O)O [Linoleic acid]
activity at 6 µM (recombinant HarmOBP10 [1]; [4]): 56%

CC(C)=CCC/C(C)=C/CC/C(C)=C/CO [Farnesol]
Kd (recombinant HarmOBP10 [1]; [6]): 5.4 µM
activity at 6 µM (recombinant HarmOBP10 [1]): 54%

CCCCCCCCCCCCCC(=O)OCC [Ethyl myristate]
activity at 6 µM (recombinant HarmOBP10 [1]; [4]): 73%

CC(=O)OCCc1ccccc1 [2-Phenylethyl acetate]
activity at 16 µM (recombinant HarmOBP10 [1]; [3]): 77%

COc1cc(CC(=O)O)ccc1O [Homovanillic acid]
activity at 16 µM (recombinant HarmOBP10 [1]): 66%

CC(C)(C)c1ccc(C(=O)c2ccccc2)cc1 [p-tert-Butylbenzophenone]
quality as ligand of OBP10, in words (recombinant HarmOBP10 [1]): Even better ligands
Kd (recombinant HarmOBP10 [1]; [6]): 2.6 µM
% at max (percent of fluorescence measured at the maximum concentration) (recombinant HarmOBP10 [1]; [3]): 13%
IC50 (recombinant HarmOBP10 [1]; [7]): 3.3 µM

CCCCOC(=O)c1ccccc1 [n-Butyl benzoate]
quality as ligand of OBP10, in words (recombinant HarmOBP10 [1]): poor ligand
activity at 16 µM (recombinant HarmOBP10 [1]; [3]): 62%

CCCCCCOC(=O)c1ccccc1 [n-Hexyl benzoate]
Kd (recombinant HarmOBP10 [1]; [6]): 5.8 µM
% at max (percent of fluorescence measured at the maximum concentration) (recombinant HarmOBP10 [1]; [3]): 35%
IC50 (recombinant HarmOBP10 [1]; [7]): 7.5 µM

CC(=O)OCCC(C)CCCC(C)C (stereo not shown) [3,7-Dimethyloctyl acetate]
activity at 16 µM (recombinant HarmOBP10 [1]; [3]): 59%

COc1ccc(-c2ccccc2)cc1 [4-Phenylanisole]
activity at 16 µM (recombinant HarmOBP10 [1]; [3]): 65%

CC(CC=O)CCCC(C)(C)O (stereo not shown) [Hydroxycitronellal]
Kd (recombinant HarmOBP10 [1]; [6]): 10.5 µM
activity at 16 µM (recombinant HarmOBP10 [1]; [3]): 48%
IC50 (recombinant HarmOBP10 [1]; [7]): 13.5 µM

C=CCCCCCCCCCC [1-Dodecene]
IC50 (recombinant HarmOBP10 [1]): 6 µM
Kd (recombinant HarmOBP10 [1]): 4.7 µM
quality as ligand of OBP10, in words (recombinant HarmOBP10 [1]): rather good ligand
activity at 6 µM (recombinant HarmOBP10 [1]): 50%

CCCC/C=C\CCCCCCCCCC=O [(Z)-11-Hexadecenal]
activity at 1.6 µM (recombinant HarmOBP10 [1]; [5]): 76%

CC(CCCC(C)(C)O)CC(=O)O (stereo not shown) [Hydroxycitronellic acid]
Kd (recombinant HarmOBP10 [1]; [6]): 12.4 µM
% at max (percent of fluorescence measured at the maximum concentration) (recombinant HarmOBP10 [1]; [3]): 50%
IC50 (recombinant HarmOBP10 [1]; [7]): 16 µM

CCCCCCCCCC(=O)OCC [Ethyl decanoate]
Kd (recombinant HarmOBP10 [1]; [6]): 4.3 µM
IC50 (recombinant HarmOBP10 [1]; [7]): 5.5 µM
activity at 6 µM (recombinant HarmOBP10 [1]): 44%

CCCCCCCCCCCCOC(C)=O [Dodecyl acetate]
activity at 16 µM (recombinant HarmOBP10 [1]; [3]): > 100%

COc1cc(/C=C/C=O)ccc1O [Coniferyl aldehyde]
IC50 (recombinant HarmOBP10 [1]): 7.5 µM
Kd (recombinant HarmOBP10 [1]): 5.8 µM
activity at 16 µM (recombinant HarmOBP10 [1]): 30%

CC(C)c1ccc(C=O)cc1 [p-Isopropylbenzaldehyde]
% at max (percent of fluorescence measured at the maximum concentration) (recombinant HarmOBP10 [1]; [3]): 77%

CCCCCCCCCC=O [Decanal]
activity at 16 µM (recombinant HarmOBP10 [1]; [3]): > 100%

CCCCCCCCCCCCCCO [1-Tetradecanol]
IC50 (recombinant HarmOBP10 [1]): 1.8 µM
Kd (recombinant HarmOBP10 [1]): 1.4 µM
quality as ligand of OBP10, in words (recombinant HarmOBP10 [1]): maximum of affinity
activity at 6 µM (recombinant HarmOBP10 [1]): 36%

CCCCCCCCCCCCCCCCO [1-Hexadecanol]
activity at 6 µM (recombinant HarmOBP10 [1]; [4]): 55%

CC(C)=CCC/C(C)=C/C=O [Citral]
activity at 16 µM (recombinant HarmOBP10 [1]): 66%

CC(C)=CCC/C(C)=C/CO [Geraniol]
activity at 16 µM (recombinant HarmOBP10 [1]; [3]): 69%

CCCCCCCCCCCCS [1-Dodecanthiol]
activity at 6 µM (recombinant HarmOBP10 [1]; [4]): 62%

O=C(O)/C=C/c1ccccc1 [Cinnamic acid]
activity at 16 µM (recombinant HarmOBP10 [1]): 74%

O=C(O)CCCc1ccccc1 [4-Phenylbutyric acid]
activity at 16 µM (recombinant HarmOBP10 [1]; [3]): 73%

CCCCOC(=O)C=Cc1ccccc1 [n-Butyl cinnamate]
Kd (recombinant HarmOBP10 [1]; [6]): 9.7 µM
% at max (percent of fluorescence measured at the maximum concentration) (recombinant HarmOBP10 [1]; [3]): 42%
IC50 (recombinant HarmOBP10 [1]; [7]): 12.5 µM

CC(C)CCCC(C)CCOC(=O)c1ccccc1 (stereo not shown) [3,7-Dimethyloctyl benzoate]
Kd (recombinant HarmOBP10 [1]; [6]): 4.7 µM
activity at 16 µM (recombinant HarmOBP10 [1]; [3]): 34%
IC50 (recombinant HarmOBP10 [1]; [7]): 6 µM

CCCCCCCCOC(=O)c1ccccc1 [n-Octyl benzoate]
quality as ligand of OBP10, in words (recombinant HarmOBP10 [1]): the best
Kd (recombinant HarmOBP10 [1]; [6]): 3.1 µM
% at max (percent of fluorescence measured at the maximum concentration) (recombinant HarmOBP10 [1]; [3]): 29%
IC50 (recombinant HarmOBP10 [1]; [7]): 4 µM

CCCCCCCCCCCCCCCCCCO [1-Octadecanol]
activity at 6 µM (recombinant HarmOBP10 [1]; [4]): 56%

CCCCCC/C=C\CCCCCCCCO [(Z)-9-Hexadecen-1-ol]
activity at 1.6 µM (recombinant HarmOBP10 [1]; [5]): 65%

CCCCCCCCCCCC(=O)OCC [Ethyl laurate]
activity at 6 µM (recombinant HarmOBP10 [1]; [4]): 70%

CCCCCCCCCCC(C)=O [2-Dodecanone]
Kd (recombinant HarmOBP10 [1]; [6]): 13.2 µM
activity at 16 µM (recombinant HarmOBP10 [1]; [3]): 51%

CCCCCCCCCCCC(C)=O [2-Tridecanone]
activity at 16 µM (recombinant HarmOBP10 [1]; [3]): 60%

c1ccc(Nc2cccc3ccccc23)cc1 [1-NPN]
Kd (recombinant HarmOBP10 [2]; 2 µM protein in 50 mM Tris-HCl, pH 7.4, single binding site, averages of three replicates, read-out: dissociation constant of 1-NPN): 5.7 µM
effect of pH on affinity of 1-NPN (recombinant HarmOBP10 [2]; pH range from 5 to 9.4): marked loss of affinity in acidic conditions

COC(C=O)=Cc1ccccc1 [a-Methoxycinnamaldehyde]
Kd (recombinant HarmOBP10 [1]; [6]): 9.7 µM
% at max (percent of fluorescence measured at the maximum concentration) (recombinant HarmOBP10 [1]; [3]): 37%
IC50 (recombinant HarmOBP10 [1]; [7]): 12.5 µM

CCCCCCCCCCCCCO [1-Tridecanol]
activity at 6 µM (recombinant HarmOBP10 [1]; [4]): 85%
